Laboratory results from patent US20260092179A1, “GENETICALLY MODIFIED HOST CELLS PRODUCING VIOLACEIN, ANALOGUES, AND DERIVATIVES THEREOF” (OCTARINE BIO APS, priority 2022, published 2026).

Key:
Format in all cases: physicochemical
[1] = Stability during laundering of dyed fabrics (colour fastness, ΔE); conditions: washed at 30° c.
Method: (§1) In order to assess the stability and colour fastness of violacein and violacein derivatives dyed onto fabrics, dyed fabrics were subjected to a number of conditions. Fabrics were dyed according to Example 18 and colour coordinates and colour change before and after exposure to a given condition were determined as described in Example 18. To measure temperature stability, fabrics were incubated in an oven set to 80° c. for 4 h. To measure stability under acid and alkaline conditions, fabrics were fully submerged in water solutions set to pH 8 with NaOH and pH 5 with HCl and incubated at room temperature for 30 minutes. Fabrics were then incubated at 37° c. for 4 h. To measure stability during laundering, fabrics were washed at 30° c. under the “mix” setting of a Siemens IQ300 washing machine, then dried in a Siemens IQ300 dryer until dry. To measure artificial light stability, fabrics were placed under an LED lamp at room temperature for 16 h. To measure UV light stability, fabrics were placed under a UV lamp at room temperature for 1 h.

[2] = Temperature stability of dyed fabrics (colour fastness, ΔE); conditions: oven 80° c. for 4 h; for ΔE: before and after the stability test
Method: as §1

[3] = Alkaline pH stability of dyed fabrics (colour fastness, ΔE); conditions: pH 8 with NaOH
Method: as §1

[4] = Acrylic, before and after the stability test
[5] = Bleached cotton, before and after the stability test
[6] = Diacetate, before and after the stability test
[7] = Nylon 6,6, before and after the stability test
[8] = Polyester, before and after the stability test
[9] = Wool, before and after the stability test

- L ([1]; Acrylic, After test): 69.42
- a ([1]; Acrylic, After test): −1.13
- b ([1]; Acrylic, After test): 0.45
- L ([1]; Acrylic, Before test): 60.9
- a ([1]; Acrylic, Before test): 0.39
- b ([1]; Acrylic, Before test): −2.66
- ΔE [1, 4]: 9.20
- L ([1]; Bleached cotton, After test): 69.57
- a ([1]; Bleached cotton, After test): 0.39
- b ([1]; Bleached cotton, After test): −5.93
- L ([1]; Bleached cotton, Before test): 61.14
- a ([1]; Bleached cotton, Before test): 0.73
- b ([1]; Bleached cotton, Before test): −8.03
- ΔE [1, 5]: 8.69
- L ([1]; Diacetate, After test): 54.82
- a ([1]; Diacetate, After test): 10.32
- b ([1]; Diacetate, After test): −14.22
- L ([1]; Diacetate, Before test): 50.89
- a ([1]; Diacetate, Before test): 9.08
- b ([1]; Diacetate, Before test): −15.27
- ΔE [1, 6]: 4.25
- L ([1]; Nylon 6,6, After test): 47.79
- a ([1]; Nylon 6,6, After test): 6.03
- b ([1]; Nylon 6,6, After test): −20.63
- L ([1]; Nylon 6,6, Before test): 44.46
- a ([1]; Nylon 6,6, Before test): 6.19
- b ([1]; Nylon 6,6, Before test): −22.02
- ΔE [1, 7]: 3.61
- L ([1]; Polyester, After test): 74.17
- a ([1]; Polyester, After test): −0.99
- b ([1]; Polyester, After test): −0.58
- L ([1]; Polyester, Before test): 64.92
- a ([1]; Polyester, Before test): 1.08
- b ([1]; Polyester, Before test): −5.1
- ΔE [1, 8]: 10.50
- L ([1]; Wool, After test): 72.9
- a ([1]; Wool, After test): −0.9
- b ([1]; Wool, After test): 3.2
- L ([1]; Wool, Before test): 63.37
- a ([1]; Wool, Before test): −0.25
- b ([1]; Wool, Before test): −1.82
- ΔE [1, 9]: 10.79
- L ([2]; Acrylic, After test): 59.66
- a ([2]; Acrylic, After test): 0.86
- b ([2]; Acrylic, After test): −2.82
- L ([2]; Acrylic, Before test): 59.1
- a ([2]; Acrylic, Before test): 1.55
- b ([2]; Acrylic, Before test): −1.29
- ΔE ([2]; Acrylic): 1.77
- L ([2]; Bleached cotton, After test): 63.74
- a ([2]; Bleached cotton, After test): 2.09
- b ([2]; Bleached cotton, After test): −8.13
- L ([2]; Bleached cotton, Before test): 63.16
- a ([2]; Bleached cotton, Before test): 1.56
- b ([2]; Bleached cotton, Before test): −7.66
- ΔE ([2]; Bleached cotton): 0.92
- L ([2]; Diacetate, After test): 51.96
- a ([2]; Diacetate, After test): 10.78
- b ([2]; Diacetate, After test): −13.7
- L ([2]; Diacetate, Before test): 51.65
- a ([2]; Diacetate, Before test): 10.65
- b ([2]; Diacetate, Before test): −14.56
- ΔE ([2]; Diacetate): 0.92
- L ([2]; Nylon 6,6, After test): 45.2
- a ([2]; Nylon 6,6, After test): 6.79
- b ([2]; Nylon 6,6, After test): −21.25
- L ([2]; Nylon 6,6, Before test): 44.99
- a ([2]; Nylon 6,6, Before test): 6.18
- b ([2]; Nylon 6,6, Before test): −21.43
- ΔE ([2]; Nylon 6,6): 0.67
- L ([2]; Polyester, After test): 65.03
- a ([2]; Polyester, After test): 2.08
- b ([2]; Polyester, After test): −2.03
- L ([2]; Polyester, Before test): 64.62
- a ([2]; Polyester, Before test): 1.61
- b ([2]; Polyester, Before test): −2.79
- ΔE ([2]; Polyester): 0.98
- L ([2]; Wool, After test): 66.12
- a ([2]; Wool, After test): 1.93
- b ([2]; Wool, After test): −0.48
- L ([2]; Wool, Before test): 66.67
- a ([2]; Wool, Before test): −0.09
- b ([2]; Wool, Before test): −0.62
- ΔE ([2]; Wool): 2.10
- L ([3]; Acrylic, After test): 59.52
- a ([3]; Acrylic, After test): 0.99
- b ([3]; Acrylic, After test): −2.75
- L ([3]; Acrylic, Before test): 60.91
- a ([3]; Acrylic, Before test): 1.48
- b ([3]; Acrylic, Before test): −2.6
- ΔE [3, 4]: 1.48
- L ([3]; Bleached cotton, After test): 62.83
- a ([3]; Bleached cotton, After test): 2.23
- b ([3]; Bleached cotton, After test): −8.43
- L ([3]; Bleached cotton, Before test): 61.33
- a ([3]; Bleached cotton, Before test): 1.92
- b ([3]; Bleached cotton, Before test): −9.6
- ΔE [3, 5]: 1.93
- L ([3]; Diacetate, After test): 53.77
- a ([3]; Diacetate, After test): 9.48
- b ([3]; Diacetate, After test): −13.38
- L ([3]; Diacetate, Before test): 53.4
- a ([3]; Diacetate, Before test): 9.48
- b ([3]; Diacetate, Before test): −14.88
- ΔE [3, 6]: 1.54
- L ([3]; Nylon 6,6, After test): 46
- a ([3]; Nylon 6,6, After test): 4.44
- b ([3]; Nylon 6,6, After test): −20.31
- L ([3]; Nylon 6,6, Before test): 45.47
- a ([3]; Nylon 6,6, Before test): 6.49
- b ([3]; Nylon 6,6, Before test): −22.12
- ΔE [3, 7]: 2.79
- L ([3]; Polyester, After test): 67.22
- a ([3]; Polyester, After test): 2.02
- b ([3]; Polyester, After test): −3.88
- L ([3]; Polyester, Before test): 66.7
- a ([3]; Polyester, Before test): 1.3
- b ([3]; Polyester, Before test): −4.19
- ΔE [3, 8]: 0.94
- L ([3]; Wool, After test): 66.95
- a ([3]; Wool, After test): 0.82
- b ([3]; Wool, After test): −0.41
- L ([3]; Wool, Before test): 65.33
- a ([3]; Wool, Before test): 0.19
- b ([3]; Wool, Before test): 0.13
- ΔE [3, 9]: 1.82
SMILES: O=C1NC(c2c[nH]c3ccccc23)=C/C1=C1\C(=O)Nc2ccccc21 [deoxyviolacein]
